Laboratory results taken from patent publication US20220146526A1, “METHOD FOR EVALUATING SAMPLE, ANALYSIS METHOD, METHOD FOR DETECTING DEGRADED SAMPLE, MARKER FOR DETECTING DEGRADED BLOOD PLASMA SAMPLE, AND MARKER FOR DETECTING DEGRADED SERUM SAMPLE” (SHIMADZU CORPORATION, priority 2019, published 2022).

Columns and labels:
Format in all cases: physicochemical, human
[1] = LC/MS of serum sample: number of times of freezing and thawing (Table M); design: key to Rate of increase or decrease: detection intensity relative to 1 at 2 freeze-thaw cycles; conditions: for Number of times when compound is affected / Increase or decrease: serum sample, LC/MS; for Number of times when compound is affected: detection intensity changed by 30% or more vs 2 times of freezing and thawing; for Increase or decrease: detection intensity vs 2 times of freezing and thawing
Outline: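 Values are detection intensities relative to serum thawed twice, versus 4, 6 or 10 freeze-thaw cycles. Serum came from blood spun at room temperature, 3500 rpm for 5 minutes. Analysis: electrospray LC/MS in MRM mode, Discovery HS F5-3 column, 40° C, 0.1% formic acid in water and acetonitrile.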

[2] = LC/MS of blood plasma sample: time from blood collection to centrifugation (Table D); conditions: for Increase or decrease: detection intensity, after 12 hours vs 15 minutes; for Rate of increase or decrease (second value, decrease) / Rate of increase or decrease (first value, increase): different from individual to individual, relative to 1 at 15 minutes, collection to centrifugation; for Rate of increase or decrease (second value, decrease): individuals with decrease; for Rate of increase or decrease (first value, increase): individuals with increase
Method: (§1) At room temperature, 5 mL of blood from a healthy subject was taken into a blood-collecting vessel containing EDTA, and the blood-collecting vessel was inverted for mixing, then cooled, and allowed to stand at 4° C. Here, in order to investigate how the detection intensity of molecules contained in the sample was affected in a case where the time to cooling was set to 5 minutes or more as compared to that in a case where the time to cooling was set to 1 minute or less, preparations were performed under both the former condition and the latter condition. After standing, the blood sample was subjected to centrifugation under a condition of 4° C., 3000 rpm, and 15 minutes. […] After centrifugation, the blood-collecting vessel was left to stand at room temperature for 30 minutes, and the blood plasma was isolated during this 30 minutes. The obtained blood plasma sample was frozen and stored. Here, in order to investigate how the detection intensity of molecules contained in the sample was affected in cases where freezing and thawing was performed 4 times, 6 times, and 10 times after freezing as compared to that in a case where freezing and thawing was performed 2 times after freezing, freezing and thawing was performed under the respective conditions of 2, 4, 6, and 10 times.
(§2) Frozen blood plasma samples and serum samples were subjected to GC/MS or LC/MS. In GC/MS, the blood plasma samples and serum samples were subjected to methoxymation and trimethylsilylation and then introduced to GC-MS.
(§3) Analysis column: Discovery HS F5-3 (inner diameter of 2.1 mm, length of 150 mm, film thickness of 3 μm) (Sigma-Aldrich)
(§4) Column temperature: 40° C.
(§5) (A) 0.1% formic acid (dissolved in water)
(§6) (B) 0.1% formic acid (dissolved in acetonitrile)
(§7) Flow velocity: 0.25 mL/min
(§8) Ionization method: electrospray
(§9) Temperature: • Desolvation Line (DL) temperature: 250° C. • Heat block temperature: 400° C. • Interface temperature: 300° C.
(§10) Gas flow rate: • Nebulizer gas flow rate: 3.0 L/min • Drying gas flow rate: 10.0 L/min • Heating gas flow rate: 10.0 L/min
(§11) Mode: multiple reaction monitoring (MRM)
The rate of increase or decrease in Table D is the value of detection intensity relative to 1 that is the detection intensity in a case where the time from blood collection to centrifugation is set to 15 minutes.

[3] = GC/MS of serum sample: time from blood collection to centrifugation (Table G); conditions: blood collection to centrifugation
Outline: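 Values express detection intensity as a ratio to the sample centrifuged 15 minutes after blood collection (taken as 1). Serum was derivatized by methoxymation and trimethylsilylation, then analysed by electron-ionization GC/MS using multiple reaction monitoring on a BPX5 column ramped from 60 to 330° C.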

[4] = LC/MS of blood plasma sample: number of times of freezing and thawing (Table F); conditions: for Rate of increase or decrease: detection intensity relative to 1 at 2 times; for Increase or decrease: detection intensity
Method: as §1, §2, §3, §4, §5, §6, §7, §8, §9, §10, §11
The rate of increase or decrease in Table F is the value of detection intensity relative to 1 that is the detection intensity in a case where the number of times of freezing and thawing is set to 2 times.

[5] = GC/MS of serum sample: number of times of freezing and thawing (Table I); design: key to Rate of increase or decrease / Rate of increase or decrease (first value, increase): detection intensity relative to 2 freeze-thaw cycles = 1; conditions: serum, GC/MS
Outline: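 Detection intensities are ratios to the value after two freeze–thaw cycles, which is set as 1, compared against 4, 6 and 10 cycles. Analysis used methoxymation and trimethylsilylation derivatization, then GC/MS with EI ionization and multiple reaction monitoring on a BPX5 column. Serum came from blood held at room temperature and spun at 3500 rpm for 5 min.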

[6] = GC/MS of serum sample: time from centrifugation to isolation (Table H); design: key to Rate of increase or decrease / Rate of increase or decrease (first value, increase): detection intensity relative to 1 at 30 min centrifugation-to-isolation
Outline: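 Values are GC/MS (EI, MRM) detection intensities of methoxymated/trimethylsilylated serum, normalised to 1 for the 30-min sample. Serum was isolated 30 min, 1 h or 6 h after room-temperature centrifugation (3500 rpm, 5 min) of blood.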

[7] = LC/MS of serum sample: time from blood collection to centrifugation (Table J); conditions: for Rate of increase or decrease: detection intensity relative to 1 at 15 minutes; for Increase or decrease / Time when compound is affected: serum sample, LC/MS; for Increase or decrease: detection intensity vs 15 minutes from blood collection to centrifugation; for Time when compound is affected: time from blood collection to centrifugation, detection intensity changed by 30% or more vs 15 minutes
Method: After standing, the blood sample was subjected to centrifugation under a condition of room temperature, 3500 rpm, and 5 minutes. […] After centrifugation, the blood-collecting vessel was left to stand at room temperature, and the serum was isolated during this time. Here, in order to investigate how the detection intensity of molecules contained in the sample was affected in cases where the time during which the blood-collecting vessel was left at room temperature was set to 1 hour and 6 hours as compared to that in a case where the time was set to 30 minutes, preparations were performed under the respective conditions of 30 minutes, 1 hour, and 6 hours. The obtained serum sample was frozen and stored. Here, in order to investigate how the detection intensity of molecules contained in the sample was affected in cases where freezing and thawing was performed 4 times, 6 times, and 10 times after freezing as compared to that in a case where freezing and thawing was performed 2 times after freezing, freezing and thawing was performed under the respective conditions of 2, 4, 6, and 10 times.
as §2, §3, §4, §5, §6, §7, §8, §9, §10, §11
The rate of increase or decrease in Table J is the value of detection intensity relative to 1 that is the detection intensity in a case where the time from blood collection to centrifugation is set to 15 minutes.

[8] = 6 times of freezing and thawing, detection intensity relative to 1 at 2 times
[9] = blood collection to centrifugation
[10] = freezing and thawing 10 times vs 2 times
[11] = 6 times of freezing and thawing, relative to 1 at 2 times, different from individual to individual, second value (decrease)
[12] = after 12 hours from blood collection to centrifugation
[13] = freezing and thawing 6 times vs 2 times
[14] = 4 times of freezing and thawing, detection intensity relative to 1 at 2 times

Compound	Rate of increase or decrease [1, 8]	Number of times when compound is affected [1] [times]	Increase or decrease [1]	Increase or decrease [2, 9]	Rate of increase or decrease (second value, decrease) ([2]; after 12 hours)	Rate of increase or decrease (first value, increase) ([2]; after 12 hours)	Rate of increase or decrease ([4]; freezing and thawing 10 times)	Increase or decrease [4, 10]	Rate of increase or decrease [7, 12]	Increase or decrease [7]	Time when compound is affected [7]	other results
O=C(O)[C@@H]1CC(O)CN1 (some centres unmarked) [4-Hydroxyproline]	0.66	6	Decrease	Different from individual	0.69	1.33	1.34	Increase	–	–	–	Rate of increase or decrease ([3]; detection intensity relative to 1 at 15 minutes, after 12 hours): 1.44; Increase or decrease ([3]; detection intensity, after 12 hours vs 15 minutes): Increase; Rate of increase or decrease ([5]; detection intensity relative to 1 at 2 times, freezing and thawing 4 times): 1.40; Increase or decrease ([5]; detection intensity, freezing and thawing 4 times vs 2 times): Increase; Rate of increase or decrease ([6]; detection intensity relative to 1 at 30 minutes, after 1 hour): 1.33; Increase or decrease ([6]; detection intensity, after 1 hour vs 30 minutes): Increase
C[N+](C)(C)CC(O)CC(=O)[O-] (centres unmarked) [Carnitine]	0.67	6	Decrease	Different from individual	0.64	1.57	–	–	–	–	–	Rate of increase or decrease ([4]; freezing and thawing 6 times): 1.30; Increase or decrease [4, 13]: Increase
NC(=O)NCCC[C@H](N)C(=O)O [Citrulline]	0.62	6	Decrease	Decrease	–	–	1.33	Increase	–	–	–	Rate of increase or decrease ([2]; detection intensity relative to 1 at 15 minutes, blood collection to centrifugation, after 12 hours): 0.68
CN(CC(=O)O)C(=N)N [Creatine]	–	4	Decrease	Different from individual	0.66	1.67	–	–	–	–	–	Rate of increase or decrease [1, 14]: 0.63; Rate of increase or decrease ([4]; freezing and thawing 4 times): 1.39; Increase or decrease ([4]; freezing and thawing 4 times vs 2 times): Increase
N[C@@H](CCC(=O)O)C(=O)O [Glutamic acid]	–	10	Decrease	–	–	–	5.21	Increase	–	Increase	After 4 hours	Rate of increase or decrease ([1]; 10 times of freezing and thawing, detection intensity relative to 1 at 2 times): 0.63; Rate of increase or decrease ([7]; after 4 hours from blood collection to centrifugation): 3.09
NCC(=O)O [Glycine]	0.69	6	Decrease	–	–	–	–	Increase	1.50	Increase	After 12 hours	–
N[C@@H](Cc1c[nH]cn1)C(=O)O [Histidine]	0.61	6	Decrease	–	–	–	1.36	Increase	1.46	Increase	After 12 hours	–
CC[C@H](C)[C@H](N)C(=O)O [Isoleucine]	–	6	Different from individual	Different from individual	0.65	1.31	1.44	Increase	1.34	Increase	After 12 hours	Rate of increase or decrease ([1]; 6 times of freezing and thawing, relative to 1 at 2 times, different from individual to individual, first value (increase)): 1.33; Rate of increase or decrease [1, 11]: 0.66

Further lines, with some results ahead:

Rate of increase or decrease [1, 8]	Number of times when compound is affected [1] [times]	Increase or decrease [1]	Increase or decrease [2, 9]	Rate of increase or decrease (second value, decrease) ([2]; after 12 hours)	Rate of increase or decrease (first value, increase) ([2]; after 12 hours)	Rate of increase or decrease ([4]; freezing and thawing 10 times)	Increase or decrease [4, 10]	Rate of increase or decrease [7, 12]	Increase or decrease [7]	Time when compound is affected [7]	Compound	other results
–	6	Different from individual	Different from individual	0.64	1.41	1.34	Increase	–	–	–	C[C@H](N)C(=O)O [Alanine]	Rate of increase or decrease [1, 11]: 0.63
0.66	6	Decrease	–	–	–	1.38	Increase	1.40	Increase	After 12 hours	NC(=O)C[C@H](N)C(=O)O [Asparagine]	–
–	4	Decrease	Different from individual	0.66	1.85	–	–	–	–	–	Nc1ccccc1C(=O)CC(N)C(=O)O (centres unmarked) [Kynurenine]	Rate of increase or decrease [1, 14]: 0.67; Rate of increase or decrease ([4]; freezing and thawing 6 times): 1.37; Increase or decrease [4, 13]: Increase
0.55	6	Decrease	Different from individual	0.68	1.78	1.31	Increase	–	–	–	CN=C(NC)NCCC[C@H](N)C(=O)O [Symmetric dimethylarginine]	–
